According to ChEMBL document CHEMBL4732171 (J Med Chem, 2021):
Active and inactive are the calls of the source. The rule behind the calls is not given here.

Tests used:
[1] = molecular target: Carbonic anhydrase 2 (Homo sapiens) (UniProt P00918); assay: Binding affinity to human full length CAH2 expressed in Escherichia coli BL21 (DE3) assessed as binding concentration causing thermal stabilization by Sypro-Orange dye based DSF assay
[2] = molecular target: Carbonic anhydrase 3 (Homo sapiens, UniProt P07451)
Sequence of Carbonic anhydrase 3 (P07451 whole entry): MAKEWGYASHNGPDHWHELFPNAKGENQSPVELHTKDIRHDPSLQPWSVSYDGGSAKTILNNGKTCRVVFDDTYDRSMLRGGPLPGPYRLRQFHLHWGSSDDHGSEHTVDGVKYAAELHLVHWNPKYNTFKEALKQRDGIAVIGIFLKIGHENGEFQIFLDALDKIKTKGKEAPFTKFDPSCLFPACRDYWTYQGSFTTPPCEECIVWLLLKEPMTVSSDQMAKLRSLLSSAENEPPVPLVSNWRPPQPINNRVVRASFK

[3] = molecular target: Carbonic anhydrase 9 (Homo sapiens) (UniProt Q16790); details: UFH-001, dose 50.0 nM
[4] = molecular target: Carbonic anhydrase 9 (Homo sapiens) (UniProt Q16790); details: T47D, dose 50.0 nM

Structure (SMILES)	Activity [1] [mM]	Ki [2] [µM]	inhibition [3]	inhibition [4]
NS(=O)(=O)c1ccc(N2CCN(c3ccc(F)cc3F)C2=O)cc1	0.1	> 10	–	–
CCOc1ccc2nc(S(N)(=O)=O)sc2c1	–	–	Active	Active
